Laboratory results published in US20230346670A1, “Prebiotic Oral Care Compositions and Methods” (Colgate-Palmolive Company, priority 2020, published 2023).
Marks after values point to notes of the source that are not given here.

Legend:
Type in all cases: cell-based
[1] = system: A. actinomycetemcomitans virulence genes; assay: Virulence gene expression in multi-species biofilm (SYBR RT-qPCR); details: substrate 1 M, relative to control = 1, 2^-ΔΔCt, n = 3
Description: (§1) Biofilms are grown vertically on Calcium Deficient Hydroxyapatite (CAD-HA) disks (Hitemco Medical, Old Bethpage, USA) using the Amsterdam Active Adhesion model. Biofilms are allowed to establish during 24 h (37° C., 170 rpm) under microaerophilic conditions (6% O2, 7% CO2, 7% H2, 80% N2). After this 24 h, disks are rinsed 3 times a day for 3 minutes (RT, 250 rpm), for 3 consecutive days, by transferring the lid containing the disks to a new 24-well plate containing 2 mL/well of the appropriate substrate solution. As a negative control, PBS (pH 5.7) without substrate supplementation is used.
(§2) The virulence of the substrate-treated multi-species biofilms are evaluated by analyzing the relative expression of 33 genes that are recognized as being related to some form of virulence and from 4 periodontal pathogens.
(§3) Expression of bacterial virulence genes is analyzed through SYBR RT-qPCR and normalized for bacterial housekeeping gene expression. […] These effects are illustrated in Tables 6a and 6b:
(§4) Note, for Tables 6a and 6b, that fold changes in virulence gene expression are determined relative to the control condition through the 2^^-ΔΔCt method and are shown as the geometric mean (C.I.) (n = 3) of the 2^^-ΔΔ ^Ct values. All substrates are dissolved in PBS at a concentration of 1 M (upper part) or 1%(w/v) (lower part). Values between 0 and 1 represent relative downregulation, values >1 represent relative upregulation. […] NADG: N-acetyl-D-glucosamine; C.I.: 95% confidence interval.

[2] = system: P. gingivalis virulence genes; assay: as above; details: relative to control, 2^-ΔΔCt, n = 3
Description: as §1, §2, §3, §4

[3] = system: F. nucleatum virulence genes; assay: as above; details: relative to control = 1, 2^-ΔΔCt, n = 3
Description: as §1, §2, §3
Note, for Table 6c, fold changes in virulence gene expression are determined relative to the control condition through the 2^^-ΔΔCt method and are shown as the geometric mean (C.I.) (n = 3) of the 2^^-ΔΔCt values. All substrates are dissolved in PBS at a concentration of 1 M (upper part) or 1%(w/v) (lower part). Values between 0 and 1 represent relative downregulation, values >1 represent relative upregulation. […] NADG: N-acetyl-D-glucosamine; C.I.: 95% confidence interval.

[4] = system: human oral keratinocytes (HOK-18A); assay: Inflammatory mediator gene expression in keratinocytes exposed to substrate-treated biofilms (SYBR RT-qPCR); details: for fold change in IL-1β gene expression, geometric mean (C.I.) / fold change in IL-6 gene expression, geometric mean (C.I.) / fold change in IL-8 gene expression, geometric mean (C.I.) / fold change in MMP-8 gene expression, geometric mean (C.I.) / fold change in TNF-α gene expression, geometric mean (C.I.): relative to control, n = 3
Description: Cultures of immortalized human oral keratinocytes (HOK-18A) are grown. […] The IL-8 levels in the cellular supernatant are determined as well. RNA is converted to cDNA and relative expression of inflammatory mediator genes is determined as described above with respect to the cellular housekeeping gene β-actin.
In HOKs exposed to substrate-treated (substrate concentrations of […]) multi-species biofilms, there are mostly decreases in inflammatory mediator gene expression as measured via SYBR RT-qPCR, the results of which are detailed in Table 7:
Fold changes in inflammatory mediator gene expression from human oral keratinocytes (HOK-18A) exposed to substrate-treated multi-species biofilms are determined relatively to the control through the 2^^-ΔΔCt method and are shown as the geometric mean (C.I.) (n = 3) of the 2^^-ΔΔCt values. All substrates are dissolved in PBS at a concentration of 1 M (upper part) or 1%(w/v) (lower part). Values between 0 and 1 represent relative downregulation, values >1 represent relative upregulation.

[5] = HOK-18A exposed to biofilms treated with substrate 1% (w/v)
[6] = HOK-18A exposed to biofilms treated with substrate 1 M

In the case of `OC[C@H]1O[C@@H](O[C@H]2[C@H](O)[C@@H](O)[C@@H](O)O[C@@H]2CO)[C@H](O)[C@@H](O)[C@H]1O` [D-lactose, α-D-lactose], the “fold change in vppA expression, geometric mean (95% C.I.)” value [1] is reported as 0.17 (0.06-0.43)^∗ fold, the “fold change in pgA expression, geometric mean (95% C.I.)” value ([1]; listed as α-D-lactose) is reported as 4.3 fold and the “fold change in fimA expression, geometric mean (95% C.I.)” value ([2]; substrate 1 % (w/v)) is reported as 1.48 (0.27-8.02) fold. For the same molecule, the “fold change in kgp expression, geometric mean (95% C.I.)” value ([2]; substrate 1 % (w/v)) was 1.95 (0.45-8.59) fold, the “fold change in partC expression, geometric mean (95% C.I.)” value ([2]; substrate 1 % (w/v)) was 0.47 (0.07-3.04) fold and the “fold change in rgpA expression, geometric mean (95% C.I.)” value ([2]; substrate 1 % (w/v)) was 1.49 (0.70-3.20) fold. For the same molecule, the “fold change in fimA expression, geometric mean (95% C.I.)” value ([2]; substrate 1 M) was 0.06 (0.00-1.08)^∗ fold, the “fold change in kgp expression, geometric mean (95% C.I.)” value ([2]; substrate 1 M) was “<LOD” and the “fold change in partC expression, geometric mean (95% C.I.)” value ([2]; substrate 1 M) was 0.03 (0.01-0.17)^∗ fold. For the same molecule, the “fold change in rgpA expression, geometric mean (95% C.I.)” value ([2]; substrate 1 M) was 0.01 (0.00-4.60)^∗ fold, the “fold change in ABC transp. perm. (ABC transporter permease) expression, geometric mean (95% C.I.)” value ([3]; substrate 1% (w/v)) was 0.25 (0.08-0.78)^∗ fold and the “fold change in EF-G expression, geometric mean (95% C.I.)” value ([3]; substrate 1% (w/v)) was 0.13 (0.03-0.51)^∗ fold. For the same molecule, the “fold change in but. -coA transf. (butyrate-acetoacetate CoA-transferase) expression, geometric mean (95% C.I.)” value ([3]; substrate 1% (w/v)) was 0.57 (0.40-0.83) fold, the “fold change in hemin receptor expression, geometric mean (95% C.I.)” value ([3]; substrate 1% (w/v)) was 0.17 (0.03-0.94)^∗ fold and the “fold change in hemolysin expression, geometric mean (95% C.I.)” value ([3]; substrate 1% (w/v)) was 1.00 (0.60-1.68) fold. For the same molecule, the “fold change in ompA expression, geometric mean (95% C.I.)” value ([3]; substrate 1% (w/v)) was 1.13 (0.58-2.19) fold, the “fold change in transposase expression, geometric mean (95% C.I.)” value ([3]; substrate 1% (w/v)) was 1.26 (0.51-3.13) fold and the “fold change in ABC transp. perm. (ABC transporter permease) expression, geometric mean (95% C.I.)” value ([3]; substrate 1 M) was 16.97 (5.93-48.61)^∗ fold. For the same molecule, the “fold change in EF-G expression, geometric mean (95% C.I.)” value ([3]; substrate 1 M) was 1.54 (0.94-2.53) fold, the “fold change in but. -coA transf. (butyrate-acetoacetate CoA-transferase) expression, geometric mean (95% C.I.)” value ([3]; substrate 1 M) was 3.88 (0.87-17.43)* fold and the “fold change in hemin receptor expression, geometric mean (95% C.I.)” value ([3]; substrate 1 M) was 36.87 (17.27-78.74)^∗ fold. For the same molecule, the “fold change in hemolysin expression, geometric mean (95% C.I.)” value ([3]; substrate 1 M) was 6.34 (1.36-29.47)^∗ fold, the “fold change in ompA expression, geometric mean (95% C.I.)” value ([3]; substrate 1 M) was 1.26 (0.79-2.03) fold and the “fold change in transposase expression, geometric mean (95% C.I.)” value ([3]; substrate 1 M) was 172.87 (147.10-203.20)^∗ fold. For the same molecule, the “fold change in IL-1β gene expression, geometric mean (C.I.)” value [4, 5] was 0.89 (0.54-1.45) fold, the “fold change in IL-6 gene expression, geometric mean (C.I.)” value [4, 5] was 0.74 (0.56-0.97)^∗ fold and the “fold change in IL-8 gene expression, geometric mean (C.I.)” value [4, 5] was 1.13 (0.71-1.80) fold. For the same molecule, the “fold change in MMP-8 gene expression, geometric mean (C.I.)” value [4, 5] was 0.70 (0.62-0.79) fold, the “fold change in TNF-α gene expression, geometric mean (C.I.)” value [4, 5] was 0.81 (0.50-1.33) fold and the “fold change in IL-1β gene expression, geometric mean (C.I.)” value [4, 6] was 0.5 (0.38-0.65)^∗ fold. The “fold change in IL-6 gene expression, geometric mean (C.I.)” value [4, 6] was 0.33 (0.12-0.88)^∗ fold, the “fold change in IL-8 gene expression, geometric mean (C.I.)” value [4, 6] was 0.03 (0.02-0.05)^∗ fold and the “fold change in MMP-8 gene expression, geometric mean (C.I.)” value [4, 6] was 0.78 (0.38-1.61) fold. The “fold change in TNF-α gene expression, geometric mean (C.I.)” value [4, 6] was 0.39 (0.23-0.66)^∗ fold, the “downregulation of IL-1β gene expression” value ([4]; substrate 1 M) was 2 fold and the “downregulation of IL-6 gene expression” value ([4]; substrate 1 M) was 3 fold. The “downregulation of TNF-α gene expression” value ([4]; substrate 1 M) was 2.5 fold.
